Results reported in US8754233B2, “Pyrazolylbenzothiazole derivatives and their use as therapeutic agents” (Dermira (Canada), Inc., priority 2002, dated 2014).
One block for each compound: values may come before it.

Legend:
HUVEC = HUVEC on Matrigel, VEGF 1 ng/mL, 5 hours
Procedure: Angiogenesis, the formation of new blood vessels from pre-existing endothelium, is a critical process involved in numerous physiological and pathological conditions. Disruption of this tightly regulated process has been implicated in both chronic inflammation and solid tumour growth. The Matrigel™ morphogenesis assay is an in vitro model used to mimic the process by which endothelial cells form capillaries in vivo. Human umbilical vein endothelial cells (HUVECs) were plated over matrigel, a complex mixture of solubilized basement membrane components, and cultured in serum poor medium with specific growth factors and in the presence of the test compound. […] After 5 hours of incubation in a 5% CO2-humidified atmosphere at 37° C., the three-dimensional organization of the cells (the capillary-like structures) was examined using an inverted photomicroscope. The cells were fixed with crystal violet (0.05% in 20% ethanol) and photographed using a digital camera. Qualitative analysis was accomplished by comparing the pattern, size and integrity of the vessels formed in the test wells with those of the VEGF control wells. Quantitative analysis was performed on the images collected using the Image-Pro Plus software program.

macrophages = experiment: Survival of macrophages; assay type: cell-based, mouse; conditions: Mus musculus, Macrophage; stimulated primary macrophages
Procedure: Peritoneal exudate macrophages were isolated by peritoneal lavage with ice-cold sterile physiological saline 24 hours after intraperitoneal injection of BALB/c mice with 0.3 ml of sterile zymosan A (1 mg/0.5 mL 0.9% saline). […] 1.5×10^5 cells/well were seeded in 96-well plates and followed by 3 hour incubation at 37° C. with 5% CO2 (macrophages were allowed to attach) cells were stimulated with LPS ([…]/mL) and IFN-γ (100 U/mL) in the absence or presence of the test compounds. All treatments were replicated six times. Cells were incubated for an additional 24 hours, and cell free culture supernatants from each well were collected for NO and cytokine determination. The remaining cells were stained with crystal violet to determine effect of the compound on cell survival.

ConA 1° splenocytes = experiment: Survival of ConA 1° splenocytes (cytotoxicity by MTS staining); assay type: cell-based, mouse; conditions: Mus musculus, Splenocyte, ConA-stimulated splenocytes
Procedure: The working concentration of ConA was […]. A 20× working concentration of Concanavalin A was […] was prepared using RPMI-5. The test compounds, dimethylsulfoxide (DMSO) negative vehicle control and staurosporine positive control were diluted twenty times using RPMI-5. Ten μL each of DMSO and staurosporine were combined with 180 μl of medium containing splenocytes in the wells, and 10 μl of 50 μg/ml ConA was immediately added. Medium without ConA was added to the control wells. […] The plates were incubated at 37° C. in 5% CO2 in humidified conditions overnight (18-24 hours) for INFγ.
(MTS). The MTS solution was made fresh and under low light. The electron coupling reagent phenazine methosulfate (PMS) was added at the time of the assay. Twenty μL of MTS solution per 100 μl of tissue culture medium was added to each well. The plates were incubated 37° C. for 4 hours for unstimulated and 18-24 ConA stimulated splenocytes. The absorbance was read at 490 nm wavelength. A kit available to do this assay is “CellTiter 96® AQ Kit AQueous Kit (G5421)” by Promega.

IL-12 on macrophages = experiment: Inhibition of IL-12 release from stimulated macrophages; assay type: cell-based, mouse; conditions: Mus musculus, Macrophage; LPS and IFN-γ stimulated primary macrophages, ELISA
Procedure: Peritoneal exudate macrophages were isolated by peritoneal lavage with ice-cold sterile physiological saline 24 hours after intraperitoneal injection of BALB/c mice with 0.5 mL of sterile Zymosan A (1 mg/0.5 mL 0.9% saline). […] Murine primary macrophage are activated following incubation with LPS in the presence of sub-optimal doses of IFN-γ. Upon activation, macrophages participate actively in the onset of inflammation by releasing bioactive molecules that amplify the initial inflammatory response. […] Briefly, IL-12 levels in the supernatants from stimulated macrophages were determined with PharMingen's OptEIA™ ELISA set developed using an anti-mouse IL-12 antibody pair and mouse rIL-12 standard (PharMingen). Maxisorp™ F16 multiwell strips (Nunc, Roskilde, Denmark) were coated with anti-mouse IL-12 capture Ab (at recommended concentration) in 0.1 M NaHCO3, pH 9.5, 100 μL/well, overnight at 4° C. […] Plates were washed 3× with PBST and duplicate samples (100 μL/well) or standards (100 μL/well) in diluent buffer were incubated for 2 h. Plates were washed five times with PBST and incubated with biotinylated anti-mouse IL-12 and avidin-horseradish peroxidase (HRP) conjugate (at concentrations recommended by the manufacturer) for 1 h. […] Peritoneal exudate macrophages were isolated by peritoneal lavage with ice-cold sterile physiological saline 24 hours after intraperitoneal injection of BALB/c mice with 0.3 ml of sterile zymosan A (1 mg/0.5 mL 0.9% saline). […] All treatments were replicated six times. Cells were incubated for an additional 24 hours, and cell free culture supernatants from each well were collected for NO and cytokine determination. The remaining cells were stained with crystal violet to determine effect of the compound on cell survival.

[1] = system: Nitric Oxide On Stimulated Macrophages; experiment: Inhibition of nitric oxide on stimulated macrophages; assay type: cell-based; conditions: Mus musculus, Macrophage, 25 μM compound
Procedure: Peritoneal exudate macrophages were isolated by peritoneal lavage with ice-cold sterile physiological saline 24 hours after intraperitoneal injection of BALB/c mice with 0.3 ml of sterile zymosan A (1 mg/0.5 mL 0.9% saline). […] All treatments were replicated six times. Cells were incubated for an additional 24 hours, and cell free culture supernatants from each well were collected for NO and cytokine determination. The remaining cells were stained with crystal violet to determine effect of the compound on cell survival. […] The absorbance at 550 nm was determined. All measurements were performed six times.

PC3 Cells = experiment: Tumor cell migration assay; assay type: cell-based; conditions: Homo sapiens, PC-3, 25 μM compound
Procedure: The invasion test system (BD Bioscience's BioCoat™ FluoroBlok™ Invasion System including BD BioCoat™ Matrigel™ Invasion Chambers with the fluorescence blocking membrane FluoroBlok™ 24-Multiwell Insert System™) is removed from the package from −20° C. storage and allowed to warm to ambient temperature. PBS is added to the interior of the inserts and they are allowed to rehydrate for 2 hours at 37° C. The medium is then removed and 450 μL cell suspensions of tumor cells (grown to 50-70% confluence, trypsinized, and resuspended in medium without serum at 1×10^6/mL) is added to the top chamber. Test compounds are added to the top chamber at 10× the desired final concentration in 50 μL volumes. DMSO acts as the control. […]
Data is expressed as fluorescence units (FU) from the sum of middle 25 areas per 24-well or as percentage of invasion inhibition by following formula: % of invasion inhibition=100−FU of compound treated cell invasion/FU of DMSO treated cell invasion*100.
Tumor cell migration assay was conducted in the similar way as described in Example 16 except that the plates used were constructed with only a porous membrane dividing a top and bottom chamber without the additional thin Matrigel™ layer on top of the membrane (BD Fluoroblock™ plates). The percent inhibition of migration was determined in the same way as illustrated in Example 16.

ILK = ILK (Homo sapiens (Human), UniProt Q13418); experiment: Inhibition of ILK in vitro enzyme assay; conditions: read-out: IC50 avg. value; recombinant ILK, [γ-32P]-ATP, 15 minutes at ambient temperature
ILK, sequence (Q13418 whole entry): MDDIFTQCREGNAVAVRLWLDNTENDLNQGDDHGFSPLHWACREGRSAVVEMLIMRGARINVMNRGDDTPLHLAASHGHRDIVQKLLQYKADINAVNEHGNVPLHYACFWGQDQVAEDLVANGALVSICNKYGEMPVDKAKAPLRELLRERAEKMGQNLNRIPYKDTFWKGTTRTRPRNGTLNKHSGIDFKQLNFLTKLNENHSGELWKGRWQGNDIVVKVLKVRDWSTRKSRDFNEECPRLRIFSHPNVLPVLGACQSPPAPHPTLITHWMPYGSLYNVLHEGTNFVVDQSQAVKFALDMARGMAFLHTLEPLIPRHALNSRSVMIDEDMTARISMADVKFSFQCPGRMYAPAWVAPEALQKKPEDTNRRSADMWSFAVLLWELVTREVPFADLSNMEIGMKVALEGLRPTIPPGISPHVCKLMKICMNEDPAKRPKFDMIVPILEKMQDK
Excerpt: The target ILK is a full-length recombinant protein expressed in Hi5 insect cells by baculovirus infection. Recombinant ILK protein was expressed using cultured insect cells and a baculovirus expression system. […] This ILK transfer construct was then co-transfected with BaculoGold™ DNA (Pharmingen) into Sf9 insect cells (Invitrogen) and a high titre preparation of GST-ILK recombinant baculovirus was produced by amplification in Sf9 cells. Liter scale expression of GST-ILK recombinant protein was done in 1000 mL spinner flasks (Bellco) by infection of Hi5 insect cells (Invitrogen) grown in Ex-Cell™ 400 serum free media (JRH Biosciences) at a multiplicity of infection of approximately 5. […]
From each assay mixture, 10 μL of assay mixture was spotted onto Millipore Multiscreen-PH™ opaque plates and washed twice for 10 minutes in 1% phosphoric acid. The plates were dried at 40° C. for 30 minutes, then substrate-phosphate complexes were quantitated by scintillation counting. […]
Inhibition of ILK by the test compounds is measured by scintillation counting of the incorporation of radioactive phosphate onto a specific substrate which is immobilized onto a filter paper at the end of the assay. […]
The “baseline activity” is the amount of radioactivity incorporated in the absence of a target inhibitor.

Structure (SMILES): Cc1[nH]nc(N)c1-c1nc2ccccc2s1 [4-Benzothiazol-2-yl-5-methyl-1H-pyrazol-3-ylamine]
- % Inhibition of angiogenesis (HUVEC): 64%

Structure (SMILES): Nc1n[nH]c(N2CCCC2)c1-c1nc2ccccc2s1 [4-Benzothiazol-2-yl-5-pyrrolidin-1-yl-1H-pyrazol-3-ylamine]
- % Inhibition of angiogenesis (HUVEC): 50%

Structure (SMILES): CSc1[nH]nc(N)c1-c1nc2ccccc2s1 [4-Benzothiazol-2-yl-5-methylsulfanyl-1H-pyrazol-3-ylamine]
- % Inhibition of angiogenesis (HUVEC): 84%

Structure (SMILES): Nc1n[nH]c(N)c1-c1nc2ccccc2s1 [4-Benzothiazol-2-yl-1H-pyrazole-3,5-diamine]
- % Inhibition of angiogenesis (HUVEC): 32%

- IC50 (IL-12 on macrophages): > 25 µM
Structure (SMILES): Nc1[nH]nc(-c2ccncc2)c1-c1nc2ccccc2s1 [4-Benzothiazol-2-yl-5-pyridin-4-yl-2H-pyrazol-3-ylamine]
- IC50 (macrophages): > 25 µM
- IC50 (ConA 1° splenocytes): > 25 µM

Structure (SMILES): Nc1n[nH]c(Nc2ccc3ncccc3c2)c1-c1nc2ccccc2s1 [4-Benzothiazol-2-yl-N^5-quinolin-6-yl-1H-pyrazole-3,5-diamine]
- inhibition at 25 µM [1]: 66.1%
- inhibition at 25 µM (PC3 Cells): 81%

- IC50 (ILK): 3.3 µM
Structure (SMILES): Oc1ccc(-c2n[nH]cc2-c2nc3ccccc3s2)c(O)c1 [4-(4-Benzothiazol-2-yl-1H-pyrazol-3-yl)-benzene-1,3-diol]
- inhibition at 25 µM (PC3 Cells): 44.8%
